In patent US9814732B2, “Ulipristal acetate for prevention and treatment of breast tumors” (LABORATOIRE HRA-PHARMA, priority 2012, dated 2017):

Key:
[1] = tested on: normal human breast tissues xenografts; assay: Ki67 mitotic index in normal human breast tissue xenografted in athymic mice; format: in vivo; conditions: E2+P+UPA vs E2 and E2+P groups, lobules and ducts, UPA 20 mg pellet, 28 days
Description: Breast tissues samples were obtained from 6 women (aged 29-42 years) undergoing surgery for reduction mammoplasty, with their informed consent according to the French law on clinical experimentation.
Four weeks old ovariectomized female NMRInu/nu 20 athymic mice were purchased from Janvier laboratory (Le Genest Saint Isle, France). Breast tissues samples were obtained from 6 women (aged 29-42 years). Human mammary gland tissue was cut into 2×2×2 mm fragments and 4 fragments were then subcutaneously xenografted onto the back of 4 mice per group. Four treatment groups were performed: control, E2, E2+P and E2+P+UPA. Treatments were administered by grafting steroid pellets onto the neck of each mouse. The experimental conditions were initially determined by using a dose range of hormones mixed with cholesterol into the pellets. Blood sample assays were performed after 2 weeks and 4 weeks of treatment to measure plasmatic hormonal concentrations. Finally, the dose of 0.3 mg for E2 and 20 mg for P and UPA were used, as it provides the expected blood concentrations. For the control groups, pellets containing only cholesterol were used. To reproduce menstrual cycle conditions, mice were grafted on the first day of experiment with cholesterol, E2 and/or UPA containing pellets and on the fourteen day with cholesterol or progesterone containing pellets in control and E2 groups, or in E+P and E2+P+UPA groups, respectively. Twenty eight days after the start of experiment, mice were sacrificed. Blood was collected for each mouse, and serum was frozen at −20° C. until hormone concentrations
Mitotic index was calculated using the Ki67 antibody, and was determined for each breast tissue grafted into mice. Immunohistochemical analyses were performed using the BOND-MAX workstation (Leica, Nanterre, France). Paraffin sections of breast tissue xenografts were de-waxed and rehydrated before antigen retrieval using citrate retrieval solution (pH 6.0) for Ki67 antibody or EDTA retrieval solution (pH 9.0) for PR and ERalpha antibodies, for 30 min. […]

MCF-7 cells = assay: Apoptosis, sub-G1 quantification by flow cytometry in MCF-7 cells; format: cell-based, human; conditions: 48 h
Experimental: After seeding, cells were cultured for 24 h in serum and phenol red free medium. Then treatments were carried out in a phenol red free medium containing 5% dextran-charcoal stripped serum. Cells were treated with P or DEX (100 nM), alone or in combination with UPA, RU (1 nM to 1 μM) or CDB-3877 (100 nM). Control cells were treated with ethanol, at […] 1:1000 final ethanol concentration alone as vehicle or E2 (10 nM).
After 96 h or 48 h of hormonal treatment, respectively, for HBE or MCF-7 and T-47D cells, cells were washed in PBS, matrix dissociated with accutase enzyme (PAA laboratory, Les Mureaux, France), and centrifuged 5 minutes at 1350 rpm. Cells were fixed and frozen at −20° C. in 70% ethanol. Before analysis, cells were washed in PBS and stained with 10 μg/ml propidium iodide in PBS (containing 0.835 U/ml RNase A) (Sigma, St Quentin Fallavier, France). For each sample at least 10 000 cells were counted in a BD LSR II flow cytometer (BD Biosciences, Le Pont de Claix, France). After gating out doublets and debris, cycle distribution was analyzed using the ModFit LT software (Verity Software House, USA).

Question: Which “proliferation rate (Ki67) of normal epithelial breast cells” value [1] does the source give for `CC(=O)O[C@]1(C(C)=O)CCC2C3CCC4=CC(=O)CCC4=C3[C@@H](c3ccc(N(C)C)cc3)C[C@@]21C` (stereo partly drawn) [UPA, 17[…]-acetoxy-11[…]-[4-N,N-dimethylamino-phenyl)-19-norpregna-4,9-diene-3,20-dione] here?
Answer: The value was “does not significantly influence the proliferation rate”.

Question: And the “cell apoptosis (sub-G1 percentage), compound alone” value (MCF-7 cells; 100 nM)?
Answer: The value was “had no apoptotic or survival properties by itself”.

Question: And the “effect of UPA on DEX-mediated apoptosis” value (MCF-7 cells; DEX 100 nM + UPA 100 nM)?
Answer: Its value is “totally inhibited by UPA”.
